From US20240368115A1, “REGULATOR CONTAINING TRICYCLIC DERIVATIVE, PREPARATION METHOD THEREFOR AND APPLICATION THEREOF” (SHUJING BIOPHARMA CO., LTD, priority 2021, published 2024)

What was measured:
5-HT1A receptor = molecular target: T1, 5-HT1A receptor (Homo sapiens, UniProt P08908); assay: 5-HT1A receptor cAMP agonist test; type: cell-based; details: HEK293 cell strain stably expressing 5-HT1A receptor
T1 construct: expressed in transfected cells
T1 sequence (P08908 1-422): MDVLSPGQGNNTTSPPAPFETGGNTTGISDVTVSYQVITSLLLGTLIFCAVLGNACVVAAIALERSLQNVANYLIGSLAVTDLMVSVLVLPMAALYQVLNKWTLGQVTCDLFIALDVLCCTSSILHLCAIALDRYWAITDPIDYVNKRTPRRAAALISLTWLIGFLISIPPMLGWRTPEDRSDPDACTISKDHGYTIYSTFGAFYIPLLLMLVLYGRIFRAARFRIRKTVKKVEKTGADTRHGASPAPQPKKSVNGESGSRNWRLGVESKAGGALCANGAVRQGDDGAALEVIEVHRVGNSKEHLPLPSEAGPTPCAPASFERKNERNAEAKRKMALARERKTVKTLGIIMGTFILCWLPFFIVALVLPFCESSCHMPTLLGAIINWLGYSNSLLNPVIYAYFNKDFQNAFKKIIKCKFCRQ

[1] = Pharmacokinetic test in mice; type: in vivo; details: male, ICR, mouse, plasma, po, 5 mg/kg, oral intragastric, single dose 5 mg/kg
Description: Male ICR mice were administered orally intragastrically, the plasma concentrations of the compounds of the present invention were measured in the mice, the PK parameters were calculated, and the pharmacokinetic evaluation was performed on the compounds of the present invention.
• (1) Test samples: the compounds of the examples of the present invention, self-made. • (2) Test animals: ICR mice, SPF grade, male, Xuzhou Medical University. • (3) Main test instruments:
Drug preparation: according to the weight of the weighed drug, the preparation volume was calculated. 5% of DMSO was added firstly. After the drug was fully dissolved, 95% of 20% aqueous PB-cyclodextrin solution was then added, and the mixture was mixed well for later use.
Administration route: oral intragastric administration. Frequency and duration of administration: single administration.
ICR mice were stratified according to body weight and then randomly divided into groups of 9 mice each, and the mice were fasted overnight prior to the test. The mice were separately administered orally intragastrically. 50 μL of blood was collected from the fundus vein of the mouse at 0 h, 0.083 h, 0.25 h, 0.5 h, 1 h, 2 h, 4 h, 8 h, 12 h, and 24 h (3 time points for each mouse) to a sample tube containing heparin sodium as an anticoagulant, and the tube was placed in wet ice and centrifuged at 4000 r·min^−1 for 10 min. The plasma was separated, and cryopreserved in a refrigerator at −80° C. for testing.
The concentrations of plasma samples were measured by high performance liquid chromatography-tandem mass spectrometry (LC-MS/MS). The retention times of the compounds and internal standard, chromatogram acquisitions, and integrals of chromatograms were processed using the software Analyst (AB SCIEX), and the data statistics were processed using the software Watson LIMS (Thermo Fisher Scientific) or Analyst (AB SCIEX). The concentration of plasma was processed using a non-compartmental model of the pharmacokinetic software WinNonlin™ Version 6.3 (Pharsight, Mountain View, CA), and pharmacokinetic parameters were calculated by a linear log-trapezoidal method.

5-HT2B receptor = 5-HT2B receptor (Homo sapiens, UniProt P41595); assay: Calcium flux test for 5-HT2B receptor; type: cell-based; details: HEK293 cell strain stably expressing 5-HT2B receptor
Chain of 5-HT2B receptor (P41595 whole entry): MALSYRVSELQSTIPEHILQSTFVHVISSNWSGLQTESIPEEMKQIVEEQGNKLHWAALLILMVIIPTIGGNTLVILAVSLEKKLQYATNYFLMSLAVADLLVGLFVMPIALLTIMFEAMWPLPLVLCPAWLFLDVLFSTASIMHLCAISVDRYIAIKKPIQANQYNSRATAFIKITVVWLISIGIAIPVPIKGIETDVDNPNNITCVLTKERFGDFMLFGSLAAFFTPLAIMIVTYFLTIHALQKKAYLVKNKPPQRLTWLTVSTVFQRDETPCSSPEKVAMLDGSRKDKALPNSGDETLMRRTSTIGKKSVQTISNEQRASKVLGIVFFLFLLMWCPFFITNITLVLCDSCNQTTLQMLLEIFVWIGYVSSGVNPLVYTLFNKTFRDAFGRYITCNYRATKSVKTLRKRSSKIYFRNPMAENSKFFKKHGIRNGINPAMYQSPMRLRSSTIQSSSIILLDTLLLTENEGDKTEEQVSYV
Excerpt: • Fluo-4 calcium flux detection kit was purchased from Invitrogen; an HEK293 cell strain stably expressing 5-HT2B receptor was purchased from GenScript; serotonin was purchased from Sigma; methiothepin was purchased from Targetmol; polylysine-coated 384-well plates and 384-well compound plates were purchased from Greiner Bio-One. Molecular Device FLIPR, Agilent Bravo liquid workstation, and Countstar BioTech cell counter.
• (1) The cultured cells were digested with trypsin, and the cell suspension was taken after the digestion was terminated. The cryopreserved cells were rapidly thawed in a water bath at 37° C., and the cells were resuspended in a plating medium. […] The pellet was resuspended in an appropriate amount of plating medium, 20 μL of cell suspension was counted using a cell counter, and the cell density was diluted to 1×10^6 cells/mL. • (2) 20 μL of cell suspension was added to a polylysine-coated 384-well plate (2×10^4 cells/well). • (3) The cell plate was incubated in a 37° C./5% CO2 incubator for 16-20 h.
• (1) The cell plate was taken out from the incubator and centrifuged at 100×g to remove the medium. […] The cell plate and agonist positive compound plate were placed into the FLIPR instrument, the detection program was run, 10 μL of the diluted compound was transferred from the agonist compound plate to the cell plate, and the fluorescence signal was read. […]

With O=C1Nc2cc(OCCCCN3CCN(c4cccc(Cl)c4Cl)CC3)ccc2C2CC12 (stereo not shown) [Example 1, 5-(4-(4-(2,3-Dichlorophenyl)piperazin-1-yl)butoxy)-3,7b-dihydro-1H-cyclopropa[c]quinolin-2(1aH)-one] the EC50 (5-HT1A receptor; cAMP, forskolin 2.5×10^−7 M) was 1010 nM, the “5-HT1A Max Act %” value (5-HT1A receptor; positive control serotonin 10^−6 M) was 50.2% and the half-life [1] was 10.8 h. The AUC(0-inf) ([1]; read-out: AUC(0-inf)) was 7160 ng·h/mL, the Cmax ([1]; read-out: Cmax) was 511 ng/mL and the IC50 (5-HT2B receptor; calcium flux, antagonism of serotonin) was 658 nM. For the same compound, the “5-HT2B Max Inh %” value (5-HT2B receptor; positive control methiothepin 10^−5 M) was 105.8%.
